Experimental data reported in patent publication US12473289B2, “Heterocyclic compounds as delta-5 desaturase inhibitors and methods of use” (Amgen Inc., priority 2019, dated 2025).

The compounds below were run against Delta-5-Desaturase (D5D) (Homo sapiens (Human), UniProt O60427) (assay: In vitro measurement of Delta-5-Desaturase inhibitory activity using DGLA-CoA and Arachidonyl-CoA mass spectrometric assays). Settings: membrane preparations of D5D-overexpressing HEK293 6E cells; averaged over at least two independent runs.
Delta-5-Desaturase (D5D), sequence (O60427 whole entry, species assumed): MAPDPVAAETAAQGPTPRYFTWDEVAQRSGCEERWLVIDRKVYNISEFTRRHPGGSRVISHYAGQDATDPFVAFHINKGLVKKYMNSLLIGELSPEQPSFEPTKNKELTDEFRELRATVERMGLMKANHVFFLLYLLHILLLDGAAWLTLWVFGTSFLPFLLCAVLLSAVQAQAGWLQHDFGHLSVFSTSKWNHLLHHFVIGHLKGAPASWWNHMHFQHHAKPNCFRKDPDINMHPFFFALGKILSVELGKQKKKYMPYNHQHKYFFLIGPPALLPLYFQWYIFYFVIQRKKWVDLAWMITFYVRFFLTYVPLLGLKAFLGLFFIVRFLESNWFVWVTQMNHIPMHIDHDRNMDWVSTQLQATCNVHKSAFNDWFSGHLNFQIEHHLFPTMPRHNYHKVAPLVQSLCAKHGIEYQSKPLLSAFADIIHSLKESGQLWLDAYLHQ
Format: biochemical
Summary of the method: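 Membranes from D5D-overexpressing HEK293 6E cells (10 μg/mL final) in Tris pH 7.5 with MgCl2, octyl glucoside and TCEP were mixed 1:1 with substrate solution (0.01 mM DGLA, 0.25 mM NADH, 0.25 mM ATP, 0.05 mM CoA) for 1 h at ambient temperature. RapidFire SPE-MS/MS MRM; IC50 by 4-parameter fit, ≥2 runs.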

**Q.** With `Cc1cnn2c(=O)c(-c3cnn(CCC(F)(F)F)c3)c(C(F)(F)F)nc2c1` [Example 39-44, 8-methyl-2-(trifluoromethyl)-3-[1-(3,3,3-trifluoropropyl)-1H-pyrazol-4-yl]-4H-pyrimido[1,2-b)pyridazin-4-one] as the compound, how does the IC50 read?
**A.** 241 nM

**Q.** Which IC50 does the source give for `COc1ccn2c(=O)c(-c3cnn(CC4CC4)c3)c(C(F)(F)F)nc2c1` [Example 39-45, 3-[1-(cyclopropylmethyl)-1H-pyrazol-4-yl]-8-methoxy-2-(trifluoromethyl)-4H-pyrido[1,2-a]pyrimidin-4-one] here?
**A.** 47.4 nM

**Q.** For `Cc1cc2nc(C(F)(F)F)c(-c3cnn(CC(F)(F)C(F)(F)F)c3)c(=O)n2nc1C` [Example 39-46, 7,8-dimethyl-3-[1-(2,2,3,3,3-pentafluoropropyl)-1H-pyrazol-4-yl]-2-(trifluoromethyl)-4H-pyrimido[1,2-b]pyridazin-4-one], which IC50 is on record?
**A.** 6770 nM

**Q.** For `Cc1cc2nc(C(F)(F)F)c(-c3cnn(CCC(F)(F)F)c3)c(=O)n2nc1C` [Example 39-47, 7,8-dimethyl-2-(trifluoromethyl)-3-[1-(3,3,3-trifluoropropyl)-1H-pyrazol-4-yl]-4H-pyrimido[1,2-b]pyridazin-4-one], which IC50 is on record?
**A.** 65.6 nM

**Q.** For `Cc1cnn2c(=O)c(-c3cnc(OCC(F)(F)F)nc3)c(C(F)(F)F)nc2c1` [Example 39-48, 8-methyl-3-[2-(2,2,2-trifluoroethoxy)pyrimidin-5-yl]-2-(trifluoromethyl)-4H-pyrimido[1,2-b]pyridazin-4-one], which IC50 is on record?
**A.** 518 nM

**Q.** With `COc1ccn2c(=O)c(-c3cnn(CC4CC(F)(F)C4)c3)c(C(F)(F)F)nc2c1` [Example 39-49, 3-{1-[(3,3-difluorocyclobutyl)methyl]-1H-pyrazol-4-yl}-8-methoxy-2-(trifluoromethyl)-4H-pyrido[1,2-a]pyrimidin-4-one] as the compound, how does the IC50 read?
**A.** 4.6 nM

**Q.** How did the IC50 turn out when `Cc1cnn2c(=O)c(-c3ccc(OCC(F)(F)F)cc3)c(C(F)(F)F)nc2c1` [Example 39-50, 8-methyl-3-[4-(2,2,2-trifluoroethoxy)phenyl]-2-(trifluoromethyl)-4H-pyrimido[1,2-b]pyridazin-4-one] was run?
**A.** 105 nM

**Q.** How did the IC50 turn out when `Cc1cnn2c(=O)c(-c3cnn(CC4CC4)c3)c(C(F)(F)F)nc2c1` [Example 39-51, 3-[1-(cyclopropylmethyl)-1H-pyrazol-4-yl]-8-methyl-2-(trifluoromethyl)-4H-pyrimido[1,2-b]pyridazin-4-one] was run?
**A.** 74.3 nM

**Q.** With `Cc1cnn2c(=O)c(-c3cnn(CC4CC(F)(F)C4)c3)c(C(F)(F)F)nc2c1` [Example 39-52, 3-{1-[(3,3-difluorocyclobutyl)methyl]-1H-pyrazol-4-yl)-8-methyl-2-(trifluoromethyl)-4H-pyrimido[1,2-b]pyridazin-4-one] as the compound, how does the IC50 read?
**A.** 420 nM

**Q.** `Cc1cnn2c(=O)c(-c3cnn(CC4CC4(F)F)c3)c(C(F)(F)F)nc2c1` (centres unmarked) [Example 39-53, 3-{1-[(2,2-difluorocyclopropyl)methyl]-1H-pyrazol-4-yl}-8-methyl-2-(trifluoromethyl)-4H-pyrimido[1,2-b]pyridazin-4-one] was tested. Which IC50 did it give?
**A.** 369 nM

**Q.** For `COc1ccn2c(=O)c(-c3cnn(CC4COC4)c3)c(C(F)(F)F)nc2c1` [Example 39-54, 8-methoxy-3-{1-[(oxetan-3-yl)methyl]-1H-pyrazol-4-yl}-2-(trifluoromethyl)-4H-pyrido[1,2-a]pyrimidin-4-one], which IC50 is on record?
**A.** 207 nM

**Q.** For `COc1cnn2c(=O)c(-c3cnn(CC4CC(F)(F)C4)c3)c(C(F)(F)F)nc2c1` [Example 39-55, 3-{1-[(3,3-difluorocyclobutyl)methyl)-1H-pyrazol-4-yl}-8-methoxy-2-(trifluoromethyl)-4H-pyrimido[1,2-b]pyridazin-4-one], which IC50 is on record?
**A.** 748 nM

**Q.** How did the IC50 turn out when `Cc1cc2nc(C(F)(F)F)c(-c3cnn(CC(F)(F)C(F)(F)F)c3)c(=O)n2cc1F` [Example 39-56, 7-fluoro-8-methyl-3-[1-(2,2,3,3,3-pentafluoropropyl)-1H-pyrazol-4-yl]-2-(trifluoromethyl)-4H-pyrido[1,2-a]pyrimidin-4-one] was run?
**A.** 19.1 nM

**Q.** Which IC50 does the source give for `COc1cc2nc(C(F)(F)F)c(-c3ccc(OCC(F)(F)F)cc3)c(=O)n2cc1F` [Example 39-57, 7-fluoro-8-methoxy-3-[4-(2,2,2-trifluoroethoxy)phenyl]-2-(trifluoromethyl)-4H-pyrido[1,2-a]pyrimidin-4-one] here?
**A.** 4.1 nM

**Q.** How did the IC50 turn out when `COc1cc2nc(C(F)(F)F)c(-c3cnn(CCC(F)(F)F)c3)c(=O)n2cc1F` [Example 39-58, 7-fluoro-8-methoxy-2-(trifluoromethyl)-3-[1-(3,3,3-trifluoropropyl)-1H-pyrazol-4-yl]-4H-pyrido[1,2-a]pyrimidin-4-one] was run?
**A.** 20.4 nM

**Q.** Which IC50 does the source give for `COc1cnc2nc(C(F)(F)F)c(-c3cnn(CC(F)(F)C(F)(F)F)c3)c(=O)n2c1` [Example 40-1, 7-Methoxy-3-[1-(2,2,3,3,3-pentafluoropropyl)-1H-pyrazol-4-yl]-2-(trifluoromethyl)-4H-[1,3]diazino[1,2-a]pyrimidin-4-one] here?
**A.** 153 nM

**Q.** For `Cc1cnc2nc(C(F)(F)F)c(-c3cnn(CC(F)(F)C(F)(F)F)c3)c(=O)n2c1` [Example 40-2, 7-methyl-3-[1-(2,2,3,3,3-pentafluoropropyl)-1H-pyrazol-4-yl]-2-(trifluoromethyl)-4H-[1,3]diazino[1,2-a]pyrimidin-4-one], which IC50 is on record?
**A.** 51.8 nM

**Q.** Which IC50 does the source give for `Cc1cc2nc(C(F)(F)F)c(-c3cnn(CC(F)(F)C(F)(F)F)c3)c(=O)n2cc1Cl` [Example 41-1, 7-Chloro-8-methyl-3-[1-(2,2,3,3,3-pentafluoropropyl)-1H-pyrazol-4-yl]-2-(trifluoromethyl)-4H-pyrido[1,2-a]pyrimidin-4-one] here?
**A.** 1.2 nM

**Q.** Which IC50 does the source give for `Cc1cc2nc(C(F)(F)F)c(-c3cnn(CCC(F)(F)F)c3)c(=O)n2cc1Cl` [Example 41-2, 7-chloro-8-methyl-2-(trifluoromethyl)-3-[1-(3,3,3-trifluoropropyl)-1H-pyrazol-4-yl]-4H-pyrido[1,2-a]pyrimidin-4-one] here?
**A.** 51.1 nM

**Q.** With `Cc1cc2nc(C(F)(F)F)c(-c3ccc(OCC(F)(F)F)cc3)c(=O)n2cc1Cl` [Example 41-3, 7-chloro-8-methyl-3-[4-(2,2,2-trifluoroethoxy)phenyl]-2-(trifluoromethyl)-4H-pyrido[1,2-a]pyrimidin-4-one] as the compound, how does the IC50 read?
**A.** 241 nM

**Q.** Which IC50 does the source give for `CCOc1nc2cc(OC)ccn2c(=O)c1-c1cnn(CC(F)(F)C(F)(F)F)c1` [Example 41-4, 2-ethoxy-8-methoxy-3-[1-(2,2,3,3,3-pentafluoropropyl)-1H-pyrazol-4-yl]-4H-pyrido[1,2-a]pyrimidin-4-one] here?
**A.** 22.3 nM

**Q.** Which IC50 does the source give for `COc1nc2nc(C(F)(F)F)c(-c3cnn(CC(F)(F)C(F)(F)F)c3)c(=O)n2cc1F` [Example 42, 7-Fluoro-8-methoxy-3-[1-(2,2,3,3,3-pentafluoropropyl)-1H-pyrazol-4-yl]-2-(trifluoromethyl)-4H-[1,3]diazino[1,2-a]pyrimidin-4-one] here?
**A.** 168 nM

**Q.** `O=c1c(-c2cnn(CC(F)(F)C(F)(F)F)c2)c(C(F)(F)F)nc2cc(O)c(F)cn12` [Example 43, 7-Fluoro-8-hydroxy-3-[1-(2,2,3,3,3-pentafluoropropyl)-1H-pyrazol-4-yl]-2-(trifluoromethyl)-4H-pyrido[1,2-a]pyrimidin-4-one] was tested. Which IC50 did it give?
**A.** 742 nM

**Q.** How did the IC50 turn out when `O=c1c(-c2cnn(CC(F)(F)C(F)(F)F)c2)c(C(F)(F)F)nc2cc(O)cnn12` [Example 44, 8-Hydroxy-3-[1-(2,2,3,3,3-pentafluoropropyl)-1H-pyrazol-4-yl]-2-(trifluoromethyl)-4H-pyrimido[1,2-b]pyridazin-4-one] was run?
**A.** 1810 nM

**Q.** How did the IC50 turn out when `O=c1c(-c2cnn(CC(F)(F)C(F)(F)F)c2)c(C(F)(F)F)nc2cc(OCCl)ccn12` [Example 46, 8-(Chloromethoxy)-3-[1-(2,2,3,3,3-pentafluoropropyl)-1H-pyrazol-4-yl]-2-(trifluoromethyl)-4H-pyrido[1,2-a]pyrimidin-4-one] was run?
**A.** 16.6 nM

**Q.** How did the IC50 turn out when `O=c1c(-c2cnn(CC(F)(F)C(F)(F)F)c2)c(C(F)(F)F)nc2cc(OCF)cnn12` [Example 47, 8-(Fluoromethoxy)-3-[1-(2,2,3,3,3-pentafluoropropyl)-1H-pyrazol-4-yl]-2-(trifluoromethyl)-4H-pyrimido[1,2-b]pyridazin-4-one] was run?
**A.** 33.5 nM

**Q.** For `O=c1c(-c2cnn(CC(F)(F)C(F)(F)F)c2)c(C(F)(F)F)nc2cc(OCCl)cnn12` [Example 48, 8-(Chloromethoxy)-3-[1-(2,2,3,3,3-pentafluoropropyl)-1H-pyrazol-4-yl]-2-(trifluoromethyl)-4H-pyrimido[1,2-b]pyridazin-4-one], which IC50 is on record?
**A.** 119 nM

**Q.** `COc1ccn2c(=O)c(-c3cnn(C4CC4)c3)c(C(F)(F)F)nc2c1` [Example 49, 3-(1-Cyclopropyl-1H-pyrazol-4-yl)-8-methoxy-2-(trifluoromethyl)-4H-pyrido[1,2-a]pyrimidin-4-one] was tested. Which IC50 did it give?
**A.** 104 nM

**Q.** For `Cc1ccn2c(=O)c(-c3noc(CCC(F)(F)F)n3)c(C(F)(F)F)nc2c1` [Example 50, 8-Methyl-2-(trifluoromethyl)-3-[5-(3,3,3-trifluoropropyl)-1,2,4-oxadiazol-3-yl]-4H-pyrido[1,2-a]pyrimidin-4-one], which IC50 is on record?
**A.** 5380 nM

**Q.** For `COc1ccn2c(=O)c(-c3nc(OCC(F)(F)F)cs3)c(C(F)(F)F)nc2c1` [Example 51, 8-Methoxy-3-[4-(2,2,2-trifluoroethoxy)-1,3-thiazol-2-yl]-2-(trifluoromethyl)-4H-pyrido[1,2-a]pyrimidin-4-one], which IC50 is on record?
**A.** 2980 nM

**Q.** Which IC50 does the source give for `COc1ccn2c(=O)c(-c3nnn(CC(F)(F)C(F)(F)F)c3I)c(C(F)(F)F)nc2c1` [Example 52, 3-[5-Iodo-1-(2,2,3,3,3-pentafluoropropyl)-1H-1,2,3-triazol-4-yl]-8-methoxy-2-(trifluoromethyl)-4H-pyrido[1,2-a]pyrimidin-4-one] here?
**A.** 158 nM

**Q.** Which IC50 does the source give for `COc1ccn2c(=O)c(-c3cn(CC(F)(F)C(F)(F)F)nn3)c(C(F)(F)F)nc2c1` [Example 53, 8-Methoxy-3-[1-(2,2,3,3,3-pentafluoropropyl)-1H-1,2,3-triazol-4-yl]-2-(trifluoromethyl)-4H-pyrido[1,2-a]pyrimidin-4-one] here?
**A.** 44.7 nM
